Our source for the ED50 values is US4236008A, “Fluorination of precursors for fluorine analogs of hydrocodone and oxycodone” (priority 1978, dated 1980).

Structures can show the parent of a compound that is named as a salt. Where two headings read alike, the source gives them in different places.

For data set [1], the system named is morphine-induced Straub tail. Nature of the data set: narcotic antagonist (anti-Straub tail) test, prevention of morphine-induced Straub tail. To be noted: Mus musculus, ip, 10 min, read-out: MOUSE ED50 VALUES: ANTI-STRAUB TAIL.
For data set [2], the system named is characteristic stretching or writhing syndrome induced by phenylquinone. The data set can be described thus: standard phenylquinone writhing test (PQW), analgesic activity, oral. To be noted: Mus musculus. (In general: Writhing tests count abdominal constrictions after an irritant is injected.)
The nature of the next data set: in vivo. To be noted: mouse, sc, 135 mg/kg.
Where [3] appears, read: read-out: MOUSE ED50 VALUES: PQW.
The mark [4] stands for this setting: 0.5 h, read-out: MOUSE ED50 VALUES: PQW (peak time value).

The ED50 is the dose that gives a 50% effect, or the effect in half of the subjects. Take `COc1ccc2c3c1OC1C(F)C=CC4C(C2)N(C)CCC341` (stereo not drawn) [Ayer 3,137,701, reference compound]: the ED50 in data set [1] was greater than 162 mg/kg; in data set [2] (setting [3]) it was 32 mg/kg.
As for `COc1ccc2c3c1O[C@H]1[C@@H](O)C=C[C@H]4[C@@H](C2)N(C)CC[C@@]341` [Codeine PO4, reference compound], the ED50 is greater than 140 mg/kg in data set [1] and 4.7 mg/kg in data set [2] (setting [4]).
Take `COc1ccc2c3c1O[C@H]1C(F)=CC[C@H]4[C@@H](C2)N(C)CC[C@]314` [Compound 2, 17-Methyl-6,7-didehydro-4,5-epoxy-6-fluoro-3-methoxymorphinan Hydrochloride]: the ED50 came to 94 mg/kg in data set [1], 26 mg/kg in “in vivo” and 8 mg/kg in data set [2] (setting [3]).
The corresponding values for `COc1ccc2c3c1O[C@H]1C(F)(F)CC[C@H]4[C@@H](C2)N(C)CC[C@@]341` [Compound 4, 17-Methyl-4,5-epoxy-6,6-difluoro-3-methoxymorphinan Hydrochloride] are greater than 81 mg/kg, 10 mg/kg and 2.7 mg/kg.
Regarding `COc1ccc2c3c1O[C@H]1C(F)(F)CC[C@H]4[C@@H](C2)N(CC2CCC2)CC[C@@]341` [Compound 9, 17-Cyclobutylmethyl-4,5-epoxy-6,6-difluoro-3-methoxymorphinan Hydrochloride], the figures for the ED50 (in data set [1]; in “in vivo”; in data set [2] (setting [4])) were 4.1 mg/kg, greater than 135 mg/kg and 2.9 mg/kg, respectively.
Regarding `COc1ccc2c3c1O[C@H]1C(F)(F)CC[C@@]4(F)[C@@H](C2)N(CC2CC2)CC[C@]314` [Compound 13, 17-Cyclopropylmethyl-4,5-epoxy-6,6,14β-trifluoro-3-methoxymorphinan H ydrochloride], the ED50 (in “in vivo”; in data set [2] (setting [3])) was greater than 135 mg/kg each time.
As to `COc1ccc2c3c1O[C@H]1C(F)(F)CC[C@@]4(F)[C@@H](C2)N(CC2CCC2)CC[C@]314.Cl` [Compound 17, 17-Cyclobutylmethyl-4,5α-epoxy-6,6,14β-trifluoro-3-methoxymorphinan Hydrochloride], the results for the ED50 (in data set [1]; in the data set “in vivo”; in data set [2] (setting [3])) were 17 mg/kg, greater than 135 mg/kg and greater than 135 mg/kg, respectively.
Turning to `COc1ccc2c3c1O[C@H]1C(F)(F)CC[C@H]4[C@@H](C2)N(CC2CC2)CC[C@@]341` [Compound 22, 17-Cyclopropylmethyl-4,5-epoxy-6,6-difluoro-3-methoxymorphinan], the values for the ED50 (in data set [1]; in “in vivo”; in data set [2] (setting [4])) were 0.15 mg/kg, greater than 54 mg/kg and 2.2 mg/kg, respectively.
As for `COc1ccc2c3c1O[C@H]1C(F)=CC[C@H]4[C@@H](C2)N(CC2CC2)CC[C@]314` [Compound 23, 17-Cyclopropylmethyl-6,7-didehydro-4,5-epoxy-6-fluoro-3-methoxymorphinan], the 50% effective dose (ED50) in data set [1] is 0.21 mg/kg; in the data set “in vivo”, greater than 135 mg/kg; in data set [2] (setting [3]), 18 mg/kg.
For `COc1ccc2c3c1O[C@H]1C(F)(F)CC[C@@]4(O)[C@@H](C2)N(CC2CCC2)CC[C@]314.Cl` [Compound 30, 17-Cyclobutylmethyl-4,5α-epoxy-6,6-difluoro-14β-hydroxy-3-methoxymorphinan Hydrochloride], the ED50 in data set [1] is 10.8 mg/kg; in data set [2] (setting [3]), 26 mg/kg.
With `CN1CC[C@]23c4c5ccc(O)c4O[C@H]2[C@@H](O)C=C[C@H]3[C@H]1C5` [Morphine SO4, reference compound], the ED50 in data set [2] (setting [4]) turned out to be 3 mg/kg.
